Paper PMC9696794, “Synthesis and Antimicrobial Activity of Short Analogues of the Marine Antimicrobial Peptide Turgencin A: Effects of SAR Optimizations, Cys-Cys Cyclization and Lipopeptide Modifications” (International Journal of Molecular Sciences, 2022)
Where a SMILES comes first, the peptide text is derived from it. The star is where a group is joined. Lauroyl = CCCCCCCCCCCC(=O)*; Decanoyl = CCCCCCCCCC(=O)*

How the values were obtained:
[1] = system: A. pullulans (Ap); assay: microbe, parasite or virus in culture; format: cell-based, Aurobasidium pollulans; settings: 48 h
Procedure: (§1) The synthesized peptides were screened for antifungal activity against the molds A. pullulans (Ap) and Rhodotorula sp. (Rh) (both obtained from Professor Arne Tronsmo, The Norwegian University of Life Sciences, Ås, Norway) and the yeast C. albicans (Ca, ATCC 10231) as previously described. In short, fungal spores were grown in potato dextrose broth media (Difco) containing 2% D(+)-glucose (Merck, Darmstadt, Germany) at 25–30 °C while shaking at 200 rpm overnight. The cultures were diluted with a dextrose media containing glucose to a concentration of approx. 4 × 10^5 spores/mL. Aliquots of the cultures (50 µL) were transferred to 96 well microtiter plates preloaded with the synthetic peptides (50 µL) in two-fold serial dilutions (256 to 1 µg/mL). Polymyxin B and CHX (both with concentrations ranging from 12.5 to 0.09 μg/mL) served as positive antibiotic controls. The microtiter plates containing the fungal spores and the test peptides were incubated at room temperature for 48 h and OD600 was recorded using a Synergy H1 Hybrid microplate reader system (BioTek, Winooski, VT, USA). MIC was defined as the lowest peptide concentration showing an optical density less than 10% of the negative (growth) control. All experiments were performed in triplicate.

[2] = system: Gram-positive bacterial strains; settings: Table S3; MIC >256 set to 256
Procedure: (§2) All cyclic and linear peptides were screened for antibacterial activity against four Gram-positive strains: B. subtilis (Bs, ATCC 23857), C. glutamicum (Cg, ATCC 13032), S. aureus (Sa, ATCC 9144) and S. epidermidis RP62A (Se, ATCC 35984), and two Gram-negative strains: E. coli (Ec, ATCC 25922) and P. aeruginosa (Pa, ATCC 27853). The activity was assessed using a broth microdilution assay according to a modified CLSI-based method. Briefly, overnight bacterial cultures were grown in Mueller–Hinton (MH) broth medium (Difco Laboratories, Detroit, MI, USA) for 2 h at room temperature. The optical density (OD600) was measured, and the bacterial suspensions were adjusted to 2.5–3 × 10^4 CFU/mL in MH medium. The bacterial suspension (50 µL) was distributed in 96-well plates (Nunc, Roskilde, Denmark) preloaded with two-fold dilution series (256 to 1 µg/mL) of peptide solutions (50 µL), giving a final well volume of 100 µL. The microplates were incubated in an EnVision 2103 microplate reader (PerkinElmer, Llantrisant, UK) at 35 °C, with OD595 recorded every hour for 24 h. MIC was defined as the lowest concentration of peptides showing an optical density less than 10% of the negative (growth) control, consisting of bacterial suspension and water. Polymyxin B sulfate (Sigma-Aldrich, St. Louis, MO, USA) and chlorhexidine acetate (CHX, Fresenius Kabi, Halden, Norway), both with concentrations ranging from 12.5 to 0.09 μg/mL, served as positive (growth inhibition) controls. All peptides were tested in triplicate.

[3] = system: B. subtilis (Bs, ATCC 23857); assay: microbe, parasite or virus in culture; format: cell-based, Bacillus subtilis; settings: ATCC 23857, 24 h
Procedure: as §2

[4] = system: C. glutamicum (Cg, ATCC 13032); assay: microbe, parasite or virus in culture; format: cell-based, Corynebacterium glutamicum; settings: ATCC 13032, 24 h
Procedure: as §2

[5] = system: human red blood cells (RBC); assay: Haemolytic activity assay; format: cell-based; settings: for Selectivity index (SI) G+: EC50/GM of Gram-positive strains; for SI (selectivity index = EC50/GM): haemolytic EC50 over GM of MIC against all bacterial strains, Table 1; for RBC Tox. (EC50), haemolytic activity: human RBC, 1 h, 37 °C, concentration giving 50% haemolysis
Procedure: The synthetized lipopeptides were screened for haemolytic activity against human red blood cells (RBC), in concentrations ranging from 500 to 3.9 μM, following a previously described protocol. In brief, haemolysis was determined using a heparinizied (10 IU/mL) fraction of freshly drawn human blood. A second fraction of blood, which was collected in test tubes containing ethylenediaminetetraacetic acid (EDTA, Vacutest, KIMA, Arzergrande, Italy), was used for determination of the hematocrit (hct). Plasma was removed from heparinized blood by washing three times with prewarmed phosphate-buffered saline (PBS) before being adjusted to a hematocrit of 4%. Peptides dissolved in dimethyl sulfoxide (DMSO) were further diluted with PBS to a final DMSO content of ≤1%. Triton X-100 (Sigma-Aldrich, St. Louis, MO, USA), used at a final concentration of 0.1%, served as a positive control for 100% haemolysis, whereas 1% DMSO in PBS buffer served as a negative control where no toxicity was detected. Duplicates of test solutions and erythrocytes, with 1% hct final concentration, were prepared in a 96-well polypropylene V-bottom plate (Nunc, Fischer scientific, Oslo, Norway). They were incubated under agitation at 37 °C and 800 rpm for 1 h. After centrifugation (5 min, 3000× g), 100 µL from each well were transferred to a flat-bottomed 96-well plate and absorbance was measured at 545 nm with a microplate reader (SpectraMax 190, Molecular Devices, San Jose, CA, USA). After subtracting PBS background, the percentage of haemolysis was calculated as the ratio of the absorbance in the peptide-treated and surfactant-treated samples. Three independent experiments were performed, and EC50 (the concentration giving 50% haemolysis) values are presented as averages.

[6] = system: Rhodotorula sp. (Rh); assay: microbe, parasite or virus in culture; format: cell-based; settings: 48 h
Procedure: as §1

[7] = system: C. albicans (Ca, ATCC 10231); assay: microbe, parasite or virus in culture; format: cell-based, Candida albicans; settings: ATCC 10231, 48 h
Procedure: as §1

[8] = system: all bacterial strains; assay: Antibacterial MIC assay, all bacterial strains together (range or geometric mean); format: cell-based; settings: for GM (geometric mean of the MIC values against all bacterial strains): Table 1, six bacterial strains; for GM of MIC Tot. bact.: Table S3, all bacterial test strains, MIC >256 set to 256
Procedure: The selectivity index (SI) of the peptides towards bacteria over eukaryotic cells was calculated using the geometric mean (GM) of the MIC values against all bacterial test strains, according to the method by Orlov et al.. The SI for each peptide was determined as the ratio of the RBC-EC50 value by the corresponding GM value. Larger SI values indicate greater selectivity for microbial cells. […] In general, the SI was higher against the Gram-positive bacteral strains than the Gram-negative strains. (Table S3). Overall, peptides displaying EC50 < 100 µg/mL were considered too haemolytic to be of interest for further exploration.
as §2

[9] = system: S. epidermidis RP62A (Se, ATCC 35984); assay: microbe, parasite or virus in culture; format: cell-based, Staphylococcus epidermidis; settings: ATCC 35984, 24 h
Procedure: as §2

[10] = system: P. aeruginosa (Pa, ATCC 27853); assay: microbe, parasite or virus in culture; format: cell-based, Pseudomonas aeruginosa; settings: ATCC 27853, 24 h
Procedure: as §2

[11] = system: Gram-negative bacterial strains (E. coli and P. aeruginosa); assay: Antibacterial MIC assay, Gram-negative strains together (range or geometric mean); format: cell-based; settings: Table S3; MIC >256 set to 256
Procedure: as §2

[12] = system: S. aureus (Sa, ATCC 9144); assay: microbe, parasite or virus in culture; format: cell-based, Staphylococcus aureus; settings: ATCC 9144, 24 h
Procedure: as §2

[13] = system: E. coli (Ec, ATCC 25922); assay: microbe, parasite or virus in culture; format: cell-based, Escherichia coli; settings: ATCC 25922, 24 h
Procedure: as §2

[14] = system: fungi (A. pullulans, C. albicans, Rhodotorula sp.); assay: Antifungal MIC assay, all fungi together (range or geometric mean); format: cell-based; settings: Table S3; MIC >128 set to 128
Procedure: as §1

[15] = Table S3, highest tested concentration used where EC50 above it

Structure (SMILES)	Antimicrobial Activity (MIC) Fungi Ap [1]	GM of MIC G+ [2]	Antimicrobial Activity (MIC) Gram + Bs [3]	Antimicrobial Activity (MIC) Gram + Cg [4]	Selectivity index (SI) G+ [5, 15]	SI (selectivity index = EC50/GM) [5]	RBC Tox. (EC50), haemolytic activity [5]	Antimicrobial Activity (MIC) Fungi Rh [6]	Antimicrobial Activity (MIC) Fungi Ca [7]	GM (geometric mean of the MIC values against all bacterial strains) [8]	GM of MIC Tot. bact. [8]	Antimicrobial Activity (MIC) Gram + Se [9]	Antimicrobial Activity (MIC) Gram − Pa [10]	GM of MIC G- [11]	Antimicrobial Activity (MIC) Gram + Sa [12]	Selectivity index (SI) G- ([5]; Table S3, EC50/GM of Gram-negative strains, highest tested concentration used where EC50 above it)	Selectivity index (SI) Fungi ([5]; Table S3, EC50/GM of fungi, highest tested concentration used where EC50 above it)	Antimicrobial Activity (MIC) Gram − Ec [13]	GM of MIC Fungi [14]	Selectivity index (SI) Tot. bact. ([5]; Table S3, EC50/GM of all bacterial strains, highest tested concentration used where EC50 above it)
CCCCCCCCCCCC(=O)N[C@@H](CS)C(=O)NCC(=O)N[C@@H](CCCNC(=N)N)C(=O)N[C@@H](CCCNC(=N)N)C(=O)N[C@@H](Cc1c[nH]c2ccccc12)C(=O)NCC(=O)N[C@@H](Cc1c[nH]c2ccccc12)C(=O)N[C@@H](Cc1c[nH]c2ccccc12)C(=O)N[C@@H](CCCNC(=N)N)C(=O)N[C@@H](CS)C(=O)N[C@@H](CCCNC(=N)N)C(=O)N[C@@H](CC(C)C)C(N)=O [Peptide C12-Turg-6, C12- CGRRWGWWRC RL-NH2] (Lauroyl-CGRRWGWWRCRL-NH2)	128 µg/mL	19 µg/mL	16 µg/mL	16 µg/mL	2	1	39 µg/mL	>128 µg/mL	64 µg/mL	32 µg/mL	32 µg/mL	16 µg/mL	–	–	–	–	–	–	–	–
CCCCCCCCCC(=O)N[C@@H](CS)C(=O)NCC(=O)N[C@@H](CCCCN)C(=O)N[C@@H](CCCCN)C(=O)N1CCC[C@H]1C(=O)NCC(=O)NCC(=O)N[C@@H](Cc1c[nH]c2ccccc12)C(=O)N[C@@H](CCCCN)C(=O)N[C@@H](CS)C(=O)N[C@@H](CCCCN)C(=O)N[C@@H](CC(C)C)C(N)=O [Peptide C10-Turg-1, C10- CGKKPGGWKC KL-NH2] (Decanoyl-CGKKPGGWKCKL-NH2)	32 µg/mL	7 µg/mL	4 µg/mL	4 µg/mL	> 142	>95	>957 µg/mL	8 µg/mL	64 µg/mL	10 µg/mL	10 µg/mL	8 µg/mL	32 µg/mL	23 µg/mL	16 µg/mL	> 42	> 38	16 µg/mL	25 µg/mL	–
CCCCCCCCCC(=O)N[C@@H](CS)C(=O)NCC(=O)N[C@@H](CCCNC(=N)N)C(=O)N[C@@H](CCCNC(=N)N)C(=O)N[C@@H](Cc1c[nH]c2ccccc12)C(=O)NCC(=O)N[C@@H](Cc1c[nH]c2ccccc12)C(=O)N[C@@H](Cc1c[nH]c2ccccc12)C(=O)N[C@@H](CCCNC(=N)N)C(=O)N[C@@H](CS)C(=O)N[C@@H](CCCNC(=N)N)C(=O)N[C@@H](CC(C)C)C(N)=O [Peptide C10-Turg-6, C10- CGRRWGWWRC RL-NH2] (Decanoyl-CGRRWGWWRCRL-NH2)	128 µg/mL	16 µg/mL	8 µg/mL	16 µg/mL	1	–	21 µg/mL	128 µg/mL	64 µg/mL	23 µg/mL	23 µg/mL	16 µg/mL	–	45 µg/mL	–	–	–	–	102 µg/mL	1
